# From PubChem BioAssay (NCI)
#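 All cell lines were grown in 96-well plates and treated with compound for 48 hours. TGI denotes the concentration required for complete inhibition of growth.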
# What was measured:
# Test in all cases: NCI tumour cell line growth inhibition, 48 h
# HOP-62 NSCLC = test system: HOP-62 NSCLC
# HS 578T breast = test system: HS 578T breast
# M14 melanoma = test system: M14 melanoma
# MALME-3M melanoma = test system: MALME-3M melanoma
# MCF7 breast = test system: MCF7 breast
# MDA-N = test system: MDA-N
# MOLT-4 leukemia = test system: MOLT-4 leukemia
# NCI-H460 lung = test system: NCI-H460 lung
# OVCAR-4 ovarian = test system: OVCAR-4 ovarian
# PC-3 prostate = test system: PC-3 prostate
# SF-295 CNS = test system: SF-295 CNS
# SK-MEL-2 melanoma = test system: SK-MEL-2 melanoma
# SNB-19 CNS = test system: SNB-19 CNS
# TK-10 renal = test system: TK-10 renal
# UACC-62 melanoma = test system: UACC-62 melanoma
# ACHN renal = test system: ACHN renal
# NCI-H23 lung = test system: NCI-H23 lung
smiles,measurement,setting,value
COc1ccccc1NC(=S)Nc1cc(C)ccn1,TGI,HOP-62 NSCLC,> 100 µM
same,TGI,HS 578T breast,> 100 µM
same,TGI,M14 melanoma,> 100 µM
same,TGI,MALME-3M melanoma,> 100 µM
same,TGI,MCF7 breast,> 100 µM
same,TGI,MDA-N,> 100 µM
same,TGI,MOLT-4 leukemia,> 100 µM
same,TGI,NCI-H460 lung,> 100 µM
same,TGI,OVCAR-4 ovarian,> 100 µM
same,TGI,PC-3 prostate,> 100 µM
same,TGI,SF-295 CNS,> 100 µM
same,TGI,SK-MEL-2 melanoma,> 100 µM
same,TGI,SNB-19 CNS,> 100 µM
same,TGI,TK-10 renal,> 100 µM
same,TGI,UACC-62 melanoma,> 100 µM
O=C1/C(=C/c2cccs2)NC(=S)N1CN1CCCC(CO)C1 (stereo not given),TGI,ACHN renal,> 100 µM
same,TGI,HOP-62 NSCLC,> 100 µM
same,TGI,HS 578T breast,> 100 µM
same,TGI,M14 melanoma,> 100 µM
same,TGI,MALME-3M melanoma,> 100 µM
same,TGI,MCF7 breast,> 100 µM
same,TGI,MDA-N,> 100 µM
same,TGI,MOLT-4 leukemia,> 100 µM
same,TGI,NCI-H23 lung,> 100 µM
same,TGI,OVCAR-4 ovarian,> 100 µM
same,TGI,PC-3 prostate,> 100 µM
same,TGI,SF-295 CNS,> 100 µM
same,TGI,SK-MEL-2 melanoma,> 100 µM
same,TGI,SNB-19 CNS,> 100 µM
same,TGI,TK-10 renal,> 100 µM
same,TGI,UACC-62 melanoma,> 100 µM
CN1C(=O)C23CCCCC2CC1(c1ccccc1)S3 (stereo not given),TGI,ACHN renal,> 100 µM
same,TGI,HOP-62 NSCLC,> 100 µM
same,TGI,HS 578T breast,> 100 µM
same,TGI,M14 melanoma,> 100 µM
same,TGI,MALME-3M melanoma,> 100 µM
same,TGI,MCF7 breast,> 100 µM
same,TGI,MDA-N,> 100 µM
same,TGI,MOLT-4 leukemia,> 100 µM
same,TGI,NCI-H23 lung,> 100 µM
same,TGI,OVCAR-4 ovarian,> 100 µM
same,TGI,PC-3 prostate,> 100 µM
same,TGI,SF-295 CNS,> 100 µM
same,TGI,SK-MEL-2 melanoma,> 100 µM
same,TGI,SNB-19 CNS,> 100 µM
same,TGI,TK-10 renal,> 100 µM
same,TGI,UACC-62 melanoma,> 100 µM
O=[N+]([O-])c1nccn1CCCNCCCn1ccnc1[N+](=O)[O-],TGI,ACHN renal,> 100 µM
same,TGI,HOP-62 NSCLC,> 100 µM
same,TGI,HS 578T breast,> 100 µM
same,TGI,M14 melanoma,> 100 µM
same,TGI,MALME-3M melanoma,> 100 µM
same,TGI,MCF7 breast,> 100 µM
same,TGI,MDA-N,> 100 µM
same,TGI,MOLT-4 leukemia,> 100 µM
same,TGI,NCI-H23 lung,> 100 µM
same,TGI,NCI-H460 lung,> 100 µM
same,TGI,OVCAR-4 ovarian,> 100 µM
same,TGI,PC-3 prostate,> 100 µM
same,TGI,SF-295 CNS,> 100 µM
same,TGI,SK-MEL-2 melanoma,> 100 µM
same,TGI,TK-10 renal,> 100 µM
same,TGI,UACC-62 melanoma,> 100 µM
O=C(O)CCC(NC(=O)c1ccc(CNc2nc3ccccc3nc2C(=O)O)cc1)C(=O)O (stereo not given),TGI,ACHN renal,> 100 µM
same,TGI,HOP-62 NSCLC,> 100 µM
same,TGI,HS 578T breast,> 100 µM
same,TGI,M14 melanoma,> 100 µM
same,TGI,MALME-3M melanoma,> 100 µM
same,TGI,MCF7 breast,> 100 µM
same,TGI,MDA-N,> 100 µM
same,TGI,MOLT-4 leukemia,> 100 µM
same,TGI,NCI-H23 lung,> 100 µM
same,TGI,OVCAR-4 ovarian,> 100 µM
same,TGI,PC-3 prostate,> 100 µM
same,TGI,SF-295 CNS,> 100 µM
same,TGI,SK-MEL-2 melanoma,> 100 µM
same,TGI,SNB-19 CNS,> 100 µM
same,TGI,TK-10 renal,> 100 µM
same,TGI,UACC-62 melanoma,> 100 µM
COC1(CC[C@H](C)COC2OC(CO)C(O)C(O)C2O)O[C@H]2C[C@H]3[C@@H]4CC=C5C[C@@H](OC6OC(CO)C(O)C(OC7OC(CO)C(O)C(O)C7O)C6OC6OC(C)C(O)C(O)C6O)CC[C@]5(C)[C@H]4CC[C@]3(C)[C@H]2[C@@H]1C (stereo not given in full),TGI,ACHN renal,36.3 µM
same,TGI,HOP-62 NSCLC,12.4 µM
same,TGI,HS 578T breast,24.6 µM
same,TGI,MALME-3M melanoma,6.11 µM
same,TGI,MCF7 breast,37.7 µM
same,TGI,MDA-N,27 µM
same,TGI,MOLT-4 leukemia,> 27.3 µM
same,TGI,NCI-H23 lung,18.9 µM
same,TGI,NCI-H460 lung,11.6 µM
same,TGI,OVCAR-4 ovarian,14.9 µM
same,TGI,PC-3 prostate,16.6 µM
same,TGI,SF-295 CNS,10.1 µM
same,TGI,SK-MEL-2 melanoma,25.2 µM
same,TGI,SNB-19 CNS,18.4 µM
same,TGI,TK-10 renal,> 69.7 µM
same,TGI,UACC-62 melanoma,> 39.2 µM
CC1(C)CN=C(Nc2ccc(F)c(F)c2)S1,TGI,ACHN renal,> 100 µM
same,TGI,HOP-62 NSCLC,> 100 µM
same,TGI,HS 578T breast,> 100 µM
same,TGI,M14 melanoma,> 100 µM
same,TGI,MALME-3M melanoma,> 100 µM
same,TGI,MCF7 breast,> 100 µM
same,TGI,MDA-N,> 100 µM
same,TGI,MOLT-4 leukemia,> 100 µM
same,TGI,NCI-H23 lung,> 100 µM
same,TGI,OVCAR-4 ovarian,> 100 µM
same,TGI,PC-3 prostate,> 100 µM
same,TGI,SF-295 CNS,> 100 µM
same,TGI,SK-MEL-2 melanoma,> 100 µM
same,TGI,SNB-19 CNS,> 100 µM
same,TGI,TK-10 renal,> 100 µM
same,TGI,UACC-62 melanoma,> 100 µM
C=C1CC(COc2ccc3c(C)cc(=O)oc3c2)(c2ccccc2)OC1=O (stereo not given),TGI,ACHN renal,7.3 µM
same,TGI,HOP-62 NSCLC,31 µM
same,TGI,HS 578T breast,> 27 µM
same,TGI,M14 melanoma,2.66 µM
same,TGI,MALME-3M melanoma,1.9 µM
same,TGI,MCF7 breast,2.71 µM
same,TGI,MDA-N,5.78 µM
same,TGI,MOLT-4 leukemia,6.77 µM
same,TGI,NCI-H23 lung,5.53 µM
same,TGI,NCI-H460 lung,23.5 µM
same,TGI,PC-3 prostate,5.78 µM
same,TGI,SF-295 CNS,23 µM
same,TGI,SK-MEL-2 melanoma,3.65 µM
same,TGI,SNB-19 CNS,29 µM
same,TGI,TK-10 renal,3.42 µM
same,TGI,UACC-62 melanoma,3.05 µM
N#Cc1c(-c2ccccc2)c(C#N)c(=O)n(C2OC(CO)C(O)C(O)C2O)c1S (stereo not given),TGI,ACHN renal,> 100 µM
same,TGI,HOP-62 NSCLC,> 100 µM
same,TGI,HS 578T breast,> 100 µM
same,TGI,M14 melanoma,> 100 µM
same,TGI,MALME-3M melanoma,> 100 µM
same,TGI,MCF7 breast,> 100 µM
same,TGI,MDA-N,> 100 µM
same,TGI,MOLT-4 leukemia,> 100 µM
same,TGI,NCI-H23 lung,> 100 µM
same,TGI,NCI-H460 lung,> 100 µM
same,TGI,PC-3 prostate,> 100 µM
same,TGI,SF-295 CNS,> 100 µM
same,TGI,SK-MEL-2 melanoma,> 100 µM
same,TGI,SNB-19 CNS,> 100 µM
same,TGI,TK-10 renal,> 100 µM
same,TGI,UACC-62 melanoma,> 100 µM
BrCC(Br)(c1ccccc1)c1ccccc1-c1cc(-c2ccccc2)cc(-c2ccccc2)n1 (stereo not given),TGI,ACHN renal,23.9 µM
same,TGI,HOP-62 NSCLC,23.2 µM
same,TGI,HS 578T breast,26 µM
same,TGI,M14 melanoma,21.6 µM
same,TGI,MALME-3M melanoma,16.4 µM
same,TGI,MCF7 breast,4.12 µM
same,TGI,MDA-N,10.9 µM
same,TGI,MOLT-4 leukemia,17.3 µM
same,TGI,NCI-H23 lung,36 µM
same,TGI,NCI-H460 lung,11.9 µM
same,TGI,OVCAR-4 ovarian,53.9 µM
same,TGI,PC-3 prostate,10.6 µM
same,TGI,SF-295 CNS,8.92 µM
same,TGI,SK-MEL-2 melanoma,5.47 µM
same,TGI,SNB-19 CNS,31.9 µM
same,TGI,TK-10 renal,21.5 µM
Cc1c(-c2ccccc2)c(C#N)c2nnn(-c3cccc(Cl)c3)c(=O)n12,TGI,ACHN renal,> 100 µM
same,TGI,HOP-62 NSCLC,> 100 µM
same,TGI,HS 578T breast,> 100 µM
same,TGI,MALME-3M melanoma,> 100 µM
same,TGI,MCF7 breast,> 100 µM
same,TGI,MDA-N,> 100 µM
same,TGI,NCI-H23 lung,> 100 µM
same,TGI,NCI-H460 lung,> 100 µM
same,TGI,OVCAR-4 ovarian,> 100 µM
same,TGI,PC-3 prostate,75.9 µM
same,TGI,SF-295 CNS,> 100 µM
same,TGI,SK-MEL-2 melanoma,67.2 µM
same,TGI,TK-10 renal,> 100 µM
same,TGI,UACC-62 melanoma,> 100 µM
Cc1ccc(C)n1-n1c(-c2ccccc2)n[nH]c1=O,TGI,ACHN renal,> 100 µM
same,TGI,HOP-62 NSCLC,> 100 µM
same,TGI,HS 578T breast,> 100 µM
same,TGI,M14 melanoma,> 100 µM
same,TGI,MALME-3M melanoma,> 100 µM
same,TGI,MCF7 breast,> 100 µM
same,TGI,MDA-N,70.8 µM
same,TGI,MOLT-4 leukemia,> 100 µM
same,TGI,NCI-H460 lung,> 100 µM
same,TGI,OVCAR-4 ovarian,> 100 µM
same,TGI,PC-3 prostate,> 100 µM
same,TGI,SF-295 CNS,> 100 µM
same,TGI,SK-MEL-2 melanoma,> 100 µM
same,TGI,SNB-19 CNS,> 100 µM
same,TGI,TK-10 renal,> 100 µM
same,TGI,UACC-62 melanoma,> 100 µM
CN(C)c1ccc(C(=NN)c2ccc(N(C)C)cc2)cc1,TGI,ACHN renal,> 78.7 µM
same,TGI,HOP-62 NSCLC,> 57.6 µM
same,TGI,HS 578T breast,> 100 µM
same,TGI,M14 melanoma,> 100 µM
same,TGI,MALME-3M melanoma,> 100 µM
same,TGI,MCF7 breast,> 100 µM
same,TGI,MDA-N,24.4 µM
same,TGI,NCI-H23 lung,> 37.7 µM
same,TGI,OVCAR-4 ovarian,> 100 µM
same,TGI,PC-3 prostate,> 23.5 µM
same,TGI,SF-295 CNS,> 21.8 µM
same,TGI,SK-MEL-2 melanoma,0.445 µM
same,TGI,SNB-19 CNS,> 100 µM
same,TGI,TK-10 renal,3.66 µM
same,TGI,UACC-62 melanoma,> 100 µM
CCOC(=O)NC(=S)c1ccc(O)c2ccccc12,TGI,ACHN renal,> 100 µM
same,TGI,HOP-62 NSCLC,> 100 µM
same,TGI,HS 578T breast,> 100 µM
same,TGI,M14 melanoma,> 100 µM
same,TGI,MALME-3M melanoma,> 100 µM
same,TGI,MCF7 breast,> 100 µM
same,TGI,MDA-N,> 100 µM
same,TGI,MOLT-4 leukemia,> 100 µM
same,TGI,NCI-H23 lung,> 100 µM
same,TGI,NCI-H460 lung,> 100 µM
same,TGI,OVCAR-4 ovarian,> 100 µM
same,TGI,PC-3 prostate,> 100 µM
same,TGI,SF-295 CNS,> 100 µM
same,TGI,SK-MEL-2 melanoma,> 100 µM
same,TGI,SNB-19 CNS,> 100 µM
same,TGI,UACC-62 melanoma,> 100 µM
